Experimental findings from ChEMBL document CHEMBL6109155, “Discovery of Phenylacylpiperidine as Novel sEH Inhibitors through Scaffold Hopping of Natural Stilbene” (J Med Chem, 2025) are described below.

Test [1] has as its system Mus musculus. Put plainly: Anti-inflammatory activity in BALB/c mouse model of carrageenan-induced paw edema assessed as inhibition of paw swelling at 20 mg/kg, po measured for 0.5 hrs relative to control. The class given is functional. The conditions noted are these: Mus musculus, BALB/c. A general note: The carrageenan paw model is a standard test of acute inflammation.

Test [2] relates to Mus musculus. Put plainly: Anti-inflammatory activity in BALB/c mouse model of carrageenan-induced paw edema assessed as inhibition of paw swelling at 20 mg/kg, po measured for 4 hrs relative to control. The class given is functional.
Test [3] addresses T1, Bifunctional epoxide hydrolase 2 (Mus musculus, UniProt P34914).
T1 sequence (P34914 whole entry): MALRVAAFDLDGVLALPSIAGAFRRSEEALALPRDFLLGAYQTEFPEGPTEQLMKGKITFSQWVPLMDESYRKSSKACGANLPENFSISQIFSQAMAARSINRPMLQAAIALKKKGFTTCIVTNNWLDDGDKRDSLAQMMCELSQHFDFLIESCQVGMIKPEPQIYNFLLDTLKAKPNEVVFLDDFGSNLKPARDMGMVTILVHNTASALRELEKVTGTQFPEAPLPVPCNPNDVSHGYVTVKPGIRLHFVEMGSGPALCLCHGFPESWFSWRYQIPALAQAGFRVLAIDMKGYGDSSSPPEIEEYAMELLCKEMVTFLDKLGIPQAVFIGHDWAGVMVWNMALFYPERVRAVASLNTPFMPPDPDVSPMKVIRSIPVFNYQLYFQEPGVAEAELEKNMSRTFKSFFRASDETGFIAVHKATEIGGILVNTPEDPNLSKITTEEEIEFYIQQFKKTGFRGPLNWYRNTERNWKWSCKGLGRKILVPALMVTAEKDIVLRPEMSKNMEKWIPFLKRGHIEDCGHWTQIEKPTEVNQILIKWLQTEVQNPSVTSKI
Put plainly: biochemical.
Description: Inhibition of C57BL/6J mouse brain sEH using 14,15-EET as substrate preincubated for 15 mins followed by substrate addition by HPLC-MS analysis

The test system of test [4] is Mus musculus. Put plainly: Anti-inflammatory activity in BALB/c mouse model of carrageenan-induced paw edema assessed as inhibition of paw swelling at 10 mg/kg, po measured up to 6 hrs relative to control. The class given is functional.
Test [5] has as its system Mus musculus. As to the kind of experiment: Anti-inflammatory activity in BALB/c mouse model of carrageenan-induced paw edema assessed as decrease in plasma 14,15-DHET levels at 10 mg/kg, po measured after 6 hrs. Format: functional, organism-based.
The test system of test [6] is Mus musculus. Put plainly: Anti-inflammatory activity in BALB/c mouse model of carrageenan-induced paw edema assessed as decrease in plasma 8,9-DHET levels at 10 mg/kg, po measured after 6 hrs. Format: functional, organism-based.
Test [7] deals with Mus musculus. As to the kind of experiment: Anti-inflammatory activity in BALB/c mouse model of carrageenan-induced paw edema assessed as decrease in plasma 11,12-DHET levels at 10 mg/kg, po measured after 6 hrs. The class given is functional, organism-based.
Test [8] relates to Mus musculus. As to the kind of experiment: Anti-inflammatory activity in BALB/c mouse model of carrageenan-induced paw edema assessed as increase in ratio of 14,15-EET to DHET plasma levels at 10 mg/kg, po measured after 6 hrs. Format: functional, organism-based.
The subject of test [9] is Mus musculus. As to the kind of experiment: Anti-inflammatory activity in BALB/c mouse model of carrageenan-induced paw edema assessed as increase in ratio of 11,12-EET to DHET plasma levels at 10 mg/kg, po measured after 6 hrs. Format: functional, organism-based.
Test [10] deals with Mus musculus. As to the kind of experiment: Anti-inflammatory activity in BALB/c mouse model of carrageenan-induced paw edema assessed as increase in ratio of 8,9-EET to DHET plasma levels at 10 mg/kg, po measured after 6 hrs. Format: functional, organism-based.
The subject of test [11] is Mus musculus. As to the kind of experiment: Effect on liver sEH enzyme activity in BALB/c mouse model of carrageenan-induced paw edema at 1 to 10 mg/kg, po measured after 6 hrs. The following applies: dose 1-10 mg/kg. Format: functional, organism-based.
The test system of test [12] is Mus musculus. Put plainly: Effect on liver sEH protein content in BALB/c mouse model of carrageenan-induced paw edema at 1 to 10 mg/kg, po measured after 6 hrs. The class given is functional, organism-based. The conditions noted are these: dose 1-10 mg/kg.
In test [13] the test system is RAW264.7. As to the kind of experiment: Anti-inflammatory activity in LPS-indeced mouse RAW264.7 cells assessed as reduction in TNF-alpha level at 10 uM preincubated for 1 hr followed by LPS addition measured after 24 hrs by ELISA. Format: functional, cell-based. The conditions noted are these: time 25.0 hrs.
The test system of test [14] is RAW264.7. Put plainly: Anti-inflammatory activity in LPS-indeced mouse RAW264.7 cells assessed as reduction in IL-1beta level at 10 uM preincubated for 1 hr followed by LPS addition measured after 24 hrs by ELISA. The class given is functional, cell-based. In general terms: ELISA stands for enzyme-linked immunosorbent assay.
In test [15] the test system is RAW264.7. Put plainly: Anti-inflammatory activity in LPS-indeced mouse RAW264.7 cells assessed as reduction in IL-6 level at 10 uM preincubated for 1 hr followed by LPS addition measured after 24 hrs by ELISA. The class given is functional, cell-based.
Test [16] deals with RAW264.7. As to the kind of experiment: Effect on IL-10 level in LPS-indeced mouse RAW264.7 cells at 10 uM preincubated for 1 hr followed by LPS addition measured after 24 hrs by ELISA. Format: functional, cell-based.
The test system of test [17] is RAW264.7. As to the kind of experiment: Effect on IL-6 level in LPS-indeced mouse RAW264.7 cells at 10 uM preincubated for 1 hr followed by LPS addition measured after 24 hrs by ELISA. Format: functional, cell-based.
In test [18] the test system is RAW264.7. Put plainly: Upregulation of IL-10 level in LPS-indeced mouse RAW264.7 cells at 10 uM preincubated for 1 hr followed by LPS addition measured after 24 hrs by ELISA. The class given is functional, cell-based.

SMILES strings stand for the structures. Active and inactive are the calls of the source. The calls are words filed in the database; no cut-off is given here.

The inhibition in vivo is how much of the control response was suppressed. As a reminder, the IC50 is the point on the concentration scale where inhibition reaches its midpoint. On to `COc1cc(OC)c2c(c1)C1Cc3ccc(NC(=O)NCc4ccc(OC(F)(F)F)cc4)cc3CN1CC2` (stereo not drawn), for which the inhibition in vivo at 20 mg/kg came out at 24.7% with Mus musculus [1] and 38.5% in the test on Mus musculus [2]. In test [3], this molecule showed an IC50 of 1.44 nM.
As to `CC[C@H](C)C(=O)N1CCC(NC(=O)Nc2ccc(OC(F)(F)F)c(F)c2)CC1`, in the test on Mus musculus [4], the Imax is recorded as 30.6%. The outcome in the test on Mus musculus [5], with Mus musculus [6], with Mus musculus [7], in the test with Mus musculus [8], with Mus musculus [9] and in the test with Mus musculus [10] was Active. The result with Mus musculus [11], in the test with Mus musculus [12], with RAW264.7 [13], in the test with RAW264.7 [14], in the test on RAW264.7 [15] and with RAW264.7 [18] was Active. The Activity entry with RAW264.7 [16] and in the test on RAW264.7 [17] was “No effect” throughout.
